Experimental data reported in patent US20080199439A1, “IAP-binding cargo molecules and peptidomimetics for use in diagnostic and therapeutic methods” (priority 2003, published 2008).

How the values were obtained:
HeLa cells [1] = assay: Competition of AVPC-badan emission by AVPF in HeLa cells; format: cell-based; details: AVPC-badan 0.1 mM, 100 equivalents AVPF, 30 minutes, emission 435-485 nm
Description: (§1) The emission between 435-485 nm after exposure of cells for 30 minutes is shown in each case. […] The emission between 385-470 nm and >505 nm after exposure of cells for 36 minutes is shown in each case;
(§2) Thus, the primary action of the IAP binding cargo molecule appears to be by binding to IAP proteins, thus releasing any activated caspases and thereby promoting apoptosis.

A498 cells = assay: Competition of AVPC-badan emission by AVPF in A498 cells; format: cell-based; details: AVPC-badan 8 mM, 100 equivalents AVPF, 36 minutes, emission 385-470 nm and >505 nm
Description: as §1, §2

recombinant XIAP-BIR3 = recombinant XIAP-BIR3 (Homo sapiens, UniProt P98170); details: 550 nm peak of free AVPC-badan; binding to recombinant XIAP-BIR3
Sequence of recombinant XIAP-BIR3 (P98170 265-330 limits assumed): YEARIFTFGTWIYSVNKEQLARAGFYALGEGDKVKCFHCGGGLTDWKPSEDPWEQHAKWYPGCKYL
Text: Without wishing to be bound by theory, upon binding to an IAP protein, the labeled IAP-binding cargo molecule packs into the groove of the BIR3 (SEQ ID NO: 15) causing a detectable shift in emission maximum and intensity when the environment of the fluorophore changes from water to the hydrophobic pocket of the protein.

HeLa cells [2] = details: compared with Smac N-terminal tetrapeptide AVPI
Description: This example illustrates the use of an labeled IAP-binding cargo molecule to bind with IAP within cells and tissues and inducing apoptosis.

HeLa cells [3] = test system: HeLa cells; design: dose or concentration left out as unconfirmed; details: 48 minutes, confocal microscopy

Compound	effect of competitor on intensity of AVPC-badan emission (HeLa cells [1])	effect of competitor on intensity of AVPC-badan emission (A498 cells)	change of emission peak and intensity on binding (recombinant XIAP-BIR3)	induction of apoptosis (kinetics) (HeLa cells [2])	intracellular localization of the peptide (HeLa cells [3])
AVPF: competitor peptide AVPF (SEQ ID NO: 19)	intensity of emission was found to diminish	intensity of emission was found to diminish			
CC(N)C(=O)NC(C(=O)N1CCCC1C(=O)NC(CSCC(=O)c1ccc2cc(N(C)C)ccc2c1)C(=O)O)C(C)C (centres unmarked) [AVPC-badan]			shifts to 542 nm and increases in intensity	induced apoptosis with kinetics similar to those of the Smac N-terminal tetrapeptide AVPI	diffuse cytosolic distribution
